{"source": "patent US11351184B2", "about": "“Preparation of Pulsatilla saponin B4 for injection” (priority 2017, dated 2022)", "key": {"[1]": {"system": "Cisplatin-induced Acute Kidney Injury In Mice", "assay": "Effect of B4 by different administration routes on cisplatin-induced acute kidney injury in mice", "type": "in vivo, ICR mouse", "details": "for BUN / Crea / TP / Urine protein: 4 days; for Reduction of effective dose to reverse cisplatin-induced renal injury, injection compared with oral administration: iv 5 mg/kg versus gavage 100 mg/kg", "protocol": "Pulsatilla saponin B4 was orally and intravenously administrated in parallel, the effect of Pulsatilla saponin B4 in different administration routes on acute nephritis in cisplatin (CDDP)-stimulated mouse serum was investigated.\nThe drugs were all prepared into a solution with a specified concentration under “Test Method” with double distilled water and administered in the prescribed manner.\n2.2 Modeling method: models were made at a dose of […] of cisplatin, the mice in normal group were injected with physiological saline intraperitoneally and the mice in other groups were injected with cisplatin intraperitoneally.\n2.3 Grouping and administration: Animals were randomly divided into seven groups, 10-12 animals in each group:\n(3) Dexamethasone positive group (0.5 mg/kg·body weight), dexamethasone solution was administered by gavage at a dose of 20 ml/kg·body weight;\n(4) B4 high-dose group administered intravenously (5 mg/kg·body weight), B4 solution was injected into the tail vein at a dose of 5 ml/kg·body weight;\n(5) B4 low-dose group administered intravenously (2.5 mg/kg·body weight), B4 solution was injected into the tail vein at a dose of 5 ml/kg·body weight;\n(6) B4 high-dose group administered by gavage (100 mg/kg·body weight), B4 solution was given by gavage at a dose of 20 ml/kg·body weight;\n(7) B4 low-dose group administered by gavage (50 mg/kg·body weight), B4 solution was given by gavage at a dose of 20 m/kg·body weight;\nDrugs were administered continuously for 4 days from the day of modeling.\nUrine was collected 0.5 hours after the last administration and urine protein was measured; blood was collected from the eyeball 1 hour after the administration, and the whole blood of the mice was placed at room temperature for 2 hours, centrifuged at 3500 rpm/min for 15 minutes, 200 μl supernatant was measured by an automatic biochemical analyzer to determine the total protein (TP), urea nitrogen (BUN) and creatinine (Cre)."}, "[2]": {"assay": "Water solubility of Pulsatilla saponin B4", "type": "physicochemical"}, "[3]": {"assay": "Compatibility test of raw materials and excipients (high temperature and illumination)", "type": "physicochemical", "protocol": "The content of Pulsatilla saponin B4 in the following experimental examples and examples is determined according to the following method:\nChromatographic column: C18, 250 mm×4.6 mm, 5 μm\nMobile phase: acetonitrile-water (26:74) (volume ratio)\nAn appropriate amount of Pulsatilla saponin B4 control sample was taken, weighed precisely, placed into a 10 ml volumetric flask, added with methanol to dissolve and dilute to the mark, the solution was shaken well and filtered to obtain a solution with 1 mg Pulsatilla saponin B4 control sample/1 ml solution.\nAbout 25 mg of test sample was taken, weighed precisely, placed into a 25 ml volumetric flask, added with the mobile phase to dissolve and dilute to the mark, the solution was shaken well and filtered through a 0.22 μm microporous membrane, the filtrate was taken to obtain the test sample.\n10 μl of the test solution was taken and injected into a liquid chromatograph, the chromatogram was recorded. The calculation formula was as follows: […]\nPulsatilla saponin B4 raw material was mixed with various excipients (water for injection, physiological saline, mannitol, lactose, sucrose and glucose) in a ratio of 1:5 (mass), and then placed under the conditions of high temperature (60° C. and 40° C.) and illumination (4500Lux±500), the samples were taken on day 0, 7 and 14 to investigate the purity of Pulsatilla saponin B4 and related substances."}, "[4]": {"details": "dexamethasone 0.5 mg/kg by gavage, serum 1 h after last administration"}, "[5]": {"details": "day 0, raw material:excipient 1:5 (mass)"}, "[6]": {"details": "day 7, illumination (4500Lux±500)"}, "[7]": {"details": "day 14, illumination (4500Lux±500)"}, "[8]": {"details": "B4 iv (tail vein) 2.5 mg/kg, serum"}, "[9]": {"details": "B4 po (gavage) 100 mg/kg, serum"}}}
{"smiles": "C[C@@H]1C[C@H]2[C@@H]3CCC4=CC(=O)C=C[C@]4(C)[C@@]3(F)[C@@H](O)C[C@]2(C)[C@@]1(O)C(=O)CO", "note": "[Positive control, Dexamethasone, reference compound]", "values": [{"measurement": "BUN", "setting": "[1]; [4]", "result": "42.97 ± 27.45", "unit": "mg/dL"}, {"measurement": "Crea", "setting": "[1]; [4]", "result": "30.10 ± 3.93", "unit": "µmol/L"}, {"measurement": "TP", "setting": "[1]; [4]", "result": "52.90 ± 2.50", "unit": "g/L"}, {"measurement": "BUN", "setting": "[1]; dexamethasone 0.5 mg/kg by gavage, serum 1 h after last administration, listed as positive control", "result": "decreased significantly"}, {"measurement": "Urine protein", "setting": "[1]; dexamethasone 0.5 mg/kg by gavage, urine 0.5 h after last administration", "result": "1.00 ± 0.27", "unit": "mg/mL"}, {"measurement": "Urine protein", "setting": "[1]; dexamethasone 0.5 mg/kg by gavage, urine 0.5 h after last administration, listed as positive control", "result": "decreased significantly"}]}
{"smiles": "C=C(C)C1CC[C@]2(C(=O)O[C@@H]3O[C@H](CO[C@@H]4O[C@H](CO)[C@@H](O[C@@H]5O[C@@H](C)[C@H](O)[C@@H](O)[C@H]5O)[C@H](O)[C@H]4O)[C@@H](O)[C@H](O)[C@H]3O)CC[C@]3(C)[C@H](CC[C@@H]4[C@@]5(C)CC[C@H](OC6OC[C@H](O)[C@H](O)[C@H]6O[C@]6(O)O[C@@H](C)[C@H](O)[C@@H](O)[C@H]6O)[C@@](C)(CO)[C@@H]5CC[C@]43C)[C@@H]12", "note": "(stereo partly drawn) [Prescription B4, Pulsatilla saponin B4]", "values": [{"measurement": "water solubility", "setting": "[2]", "result": "good water solubility"}, {"measurement": "Purity (%)", "setting": "[3]; [5]", "result": 99.10, "unit": "%"}, {"measurement": "Related substances (%) Max single impurity", "setting": "[3]; [5]", "result": 0.40, "unit": "%"}, {"measurement": "Related substances (%) Total impurities", "setting": "[3]; [5]", "result": 0.65, "unit": "%"}, {"measurement": "Content (%) 40° C.", "setting": "[3]; day 7, 40° C.", "result": 98.96, "unit": "%"}, {"measurement": "Related substances (%) 40° C. Max single impurity", "setting": "[3]; day 7, 40° C.", "result": 0.40, "unit": "%"}, {"measurement": "Related substances (%) 40° C. Total impurities", "setting": "[3]; day 7, 40° C.", "result": 0.64, "unit": "%"}, {"measurement": "Content (%) 60° C.", "setting": "[3]; day 7, 60° C.", "result": 98.93, "unit": "%"}, {"measurement": "Related substances (%) 60° C. Max single impurity", "setting": "[3]; day 7, 60° C.", "result": 0.41, "unit": "%"}, {"measurement": "Related substances (%) 60° C. Total impurities", "setting": "[3]; day 7, 60° C.", "result": 0.66, "unit": "%"}, {"measurement": "Content (%) illumination", "setting": "[3]; [6]", "result": 98.97, "unit": "%"}, {"measurement": "Related substances (%) illumination Max single impurity", "setting": "[3]; [6]", "result": 0.40, "unit": "%"}, {"measurement": "Related substances (%) illumination Total impurities", "setting": "[3]; [6]", "result": 0.64, "unit": "%"}, {"measurement": "Content (%) 40° C.", "setting": "[3]; day 14, 40° C.", "result": 98.86, "unit": "%"}, {"measurement": "Related substances (%) 40° C. Max single impurity", "setting": "[3]; day 14, 40° C.", "result": 0.41, "unit": "%"}, {"measurement": "Related substances (%) 40° C. Total impurities", "setting": "[3]; day 14, 40° C.", "result": 0.63, "unit": "%"}, {"measurement": "Content (%) 60° C.", "setting": "[3]; day 14, 60° C.", "result": 98.89, "unit": "%"}, {"measurement": "Related substances (%) 60° C. Max single impurity", "setting": "[3]; day 14, 60° C.", "result": 0.41, "unit": "%"}, {"measurement": "Related substances (%) 60° C. Total impurities", "setting": "[3]; day 14, 60° C.", "result": 0.64, "unit": "%"}, {"measurement": "Content (%) illumination", "setting": "[3]; [7]", "result": 98.95, "unit": "%"}, {"measurement": "Related substances (%) illumination Max single impurity", "setting": "[3]; [7]", "result": 0.42, "unit": "%"}, {"measurement": "Related substances (%) illumination Total impurities", "setting": "[3]; [7]", "result": 0.64, "unit": "%"}, {"measurement": "BUN", "setting": "[1]; [8]", "result": "69.26 ± 45.76", "unit": "mg/dL"}, {"measurement": "Crea", "setting": "[1]; [8]", "result": "29.27 ± 5.66", "unit": "µmol/L"}, {"measurement": "TP", "setting": "[1]; [8]", "result": "47.58 ± 2.50", "unit": "g/L"}, {"measurement": "Urine protein", "setting": "[1]; B4 iv (tail vein) 2.5 mg/kg, urine", "result": "1.35 ± 0.39", "unit": "mg/mL"}, {"measurement": "TP", "setting": "[1]; B4 iv (tail vein) 5 mg/kg, serum", "result": "46.58 ± 2.25", "unit": "g/L"}, {"measurement": "BUN", "setting": "[1]; B4 po (gavage) 50 mg/kg, serum", "result": "50.1 ± 5.38", "unit": "mg/dL"}, {"measurement": "Crea", "setting": "[1]; B4 po (gavage) 50 mg/kg, serum", "result": "30.28 ± 4.77", "unit": "µmol/L"}, {"measurement": "TP", "setting": "[1]; B4 po (gavage) 50 mg/kg, serum", "result": "47.69 ± 3.17", "unit": "g/L"}, {"measurement": "Urine protein", "setting": "[1]; B4 po (gavage) 50 mg/kg, urine", "result": "1.37 ± 0.31", "unit": "mg/mL"}, {"measurement": "Crea", "setting": "[1]; [9]", "result": "28.17 ± 3.01", "unit": "µmol/L"}, {"measurement": "TP", "setting": "[1]; [9]", "result": "48.15 ± 3.68", "unit": "g/L"}, {"measurement": "Urine protein", "setting": "[1]; B4 po (gavage) 100 mg/kg, urine", "result": "1.19 ± 0.25", "unit": "mg/mL"}, {"measurement": "Reduction of effective dose to reverse cisplatin-induced renal injury, injection compared with oral administration", "setting": "[1]", "result": "at least 20 times"}, {"measurement": "Reduction of effective dose to reverse cisplatin-induced renal injury, injection compared with oral administration", "setting": "[1]; listed as Pulsatilla saponin B4", "result": 20, "unit": "times"}]}
